Reference: article PMC7265341, “Quantifying CDK inhibitor selectivity in live cells” (Nature Communications, 2020)
pIC50: −log10 of the molar value. Read-outs that look alike come from different tables or passages of the source.

Key:
[1] = molecular target: CDK1/Cyclin E1 (Homo sapiens, UniProt P06493); test: NanoBRET live-cell target engagement, CDK1-NanoLuc/Cyclin E1 in HEK-293; type: binding; conditions: for inhibition at 10 µM: read-out: CDK1/E1 Inhibition at 10µM (%); for pIC50: read-out: CDK1/E1 IC50
CDK1/Cyclin E1, sequence (P06493 whole entry): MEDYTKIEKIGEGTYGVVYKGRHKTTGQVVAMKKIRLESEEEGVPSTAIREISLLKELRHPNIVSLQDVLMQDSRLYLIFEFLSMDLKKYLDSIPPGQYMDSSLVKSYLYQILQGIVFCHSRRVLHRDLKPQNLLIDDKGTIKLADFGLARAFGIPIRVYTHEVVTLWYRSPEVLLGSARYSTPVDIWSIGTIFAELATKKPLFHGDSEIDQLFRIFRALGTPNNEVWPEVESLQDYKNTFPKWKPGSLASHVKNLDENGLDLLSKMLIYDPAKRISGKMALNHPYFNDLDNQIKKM
CDK1/Cyclin E1, sequence (P24864 whole entry partner): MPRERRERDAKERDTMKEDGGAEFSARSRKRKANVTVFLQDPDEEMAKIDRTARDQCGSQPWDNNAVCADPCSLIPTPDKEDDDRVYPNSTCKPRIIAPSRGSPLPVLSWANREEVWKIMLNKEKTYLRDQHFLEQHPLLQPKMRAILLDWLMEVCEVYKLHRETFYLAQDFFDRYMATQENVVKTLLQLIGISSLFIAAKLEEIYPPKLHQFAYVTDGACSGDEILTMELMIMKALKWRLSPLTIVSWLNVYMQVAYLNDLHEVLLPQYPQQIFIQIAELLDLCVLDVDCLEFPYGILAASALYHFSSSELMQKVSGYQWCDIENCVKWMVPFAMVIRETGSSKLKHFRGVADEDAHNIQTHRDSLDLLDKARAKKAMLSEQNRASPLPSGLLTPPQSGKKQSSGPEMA

[2] = molecular target: CDK2/Cyclin E1 (Homo sapiens, UniProt P24941); test: NanoBRET live-cell target engagement, CDK2-NanoLuc/Cyclin E1 in HEK-293; type: binding; conditions: 10µM, read-out: CDK2/E1 Inhibition at 10µM (%)
[3] = molecular target: CDK3/Cyclin E1 (Homo sapiens, UniProt Q00526); test: NanoBRET live-cell target engagement, CDK3-NanoLuc/Cyclin E1 in HEK-293; type: binding; conditions: for inhibition at 10 µM: read-out: CDK3/E1 Inhibition at 10µM (%); for pIC50: read-out: CDK3/E1 IC50
[4] = molecular target: CDK4/Cyclin D1 (Homo sapiens, UniProt P11802); test: NanoBRET live-cell target engagement, NanoLuc-CDK4/Cyclin D1 in HEK-293; type: binding; conditions: for inhibition at 10 µM: read-out: CDK4/D1 Inhibition at 10µM (%); for pIC50: read-out: CDK4/D1 IC50
CDK4/Cyclin D1, sequence (P11802 whole entry): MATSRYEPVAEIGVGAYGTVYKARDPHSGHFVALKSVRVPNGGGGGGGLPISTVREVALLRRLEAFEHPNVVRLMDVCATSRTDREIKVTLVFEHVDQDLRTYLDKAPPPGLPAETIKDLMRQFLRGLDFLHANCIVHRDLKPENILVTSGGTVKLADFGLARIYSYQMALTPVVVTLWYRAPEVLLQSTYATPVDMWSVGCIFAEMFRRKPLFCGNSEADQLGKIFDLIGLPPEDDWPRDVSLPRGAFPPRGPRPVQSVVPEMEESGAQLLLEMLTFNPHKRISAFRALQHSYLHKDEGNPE
CDK4/Cyclin D1, sequence (P24385 whole entry partner): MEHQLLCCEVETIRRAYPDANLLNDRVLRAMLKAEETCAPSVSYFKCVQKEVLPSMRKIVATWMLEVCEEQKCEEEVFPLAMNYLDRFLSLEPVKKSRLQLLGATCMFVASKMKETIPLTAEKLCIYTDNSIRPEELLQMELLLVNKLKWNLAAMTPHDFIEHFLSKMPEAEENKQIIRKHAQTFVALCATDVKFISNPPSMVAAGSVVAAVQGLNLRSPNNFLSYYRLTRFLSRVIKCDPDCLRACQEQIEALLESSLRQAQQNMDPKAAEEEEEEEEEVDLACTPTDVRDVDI

[5] = molecular target: CDK5/CDK5R1 (Homo sapiens, UniProt Q00535); test: NanoBRET live-cell target engagement, CDK5-NanoLuc/CDK5R1 in HEK-293; type: binding; conditions: for inhibition at 10 µM: read-out: CDK5/CDK5R1 Inhibition at 10µM (%); for pIC50: read-out: CDK5/CDK5R1 IC50
[6] = molecular target: CDK6/Cyclin D1 (Homo sapiens, UniProt Q00534); test: NanoBRET live-cell target engagement, NanoLuc-CDK6/Cyclin D1 in HEK-293; type: binding; conditions: for inhibition at 10 µM: read-out: CDK6/D1 Inhibition at 10µM (%); for pIC50: read-out: CDK6/D1 IC50
CDK6/Cyclin D1, sequence (Q00534 whole entry): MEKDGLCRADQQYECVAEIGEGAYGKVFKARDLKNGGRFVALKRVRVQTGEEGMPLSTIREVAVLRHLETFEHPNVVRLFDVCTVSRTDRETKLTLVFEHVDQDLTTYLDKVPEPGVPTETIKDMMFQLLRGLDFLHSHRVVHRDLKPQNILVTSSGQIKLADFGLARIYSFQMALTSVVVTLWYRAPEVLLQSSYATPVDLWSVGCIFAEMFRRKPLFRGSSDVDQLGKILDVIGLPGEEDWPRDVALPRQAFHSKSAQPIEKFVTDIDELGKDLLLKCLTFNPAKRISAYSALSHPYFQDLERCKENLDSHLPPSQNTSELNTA
CDK6/Cyclin D1, sequence (P24385 whole entry partner): as the sequence (P24385 whole entry partner) above

[7] = molecular target: CDK7 (Homo sapiens, UniProt P50613); test: NanoBRET live-cell target engagement, NanoLuc-CDK7 in HEK-293; type: binding; conditions: for inhibition at 10 µM: read-out: CDK7 Inhibition at 10µM (%)
[8] = molecular target: CDK8/Cyclin C (Homo sapiens, UniProt P49336); test: NanoBRET live-cell target engagement, NanoLuc-CDK8/Cyclin C in HEK-293; type: binding; conditions: 10µM, read-out: CDK8/C Inhibition at 10µM (%)
[9] = molecular target: CDK9/Cyclin K (Homo sapiens, UniProt P50750); test: NanoBRET live-cell target engagement, NanoLuc-CDK9/Cyclin K in HEK-293; type: binding; conditions: 10µM, read-out: CDK9/K Inhibition at 10µM (%)
[10] = molecular target: CDK11B/Cyclin L2 (Homo sapiens, UniProt P21127); test: NanoBRET live-cell target engagement, CDK11B-NanoLuc/Cyclin L2 in HEK-293; type: binding; conditions: 10µM, read-out: CDK11b/L2 Inhibition at 10µM (%)
[11] = molecular target: CDK12/Cyclin K (Homo sapiens, UniProt Q9NYV4); test: NanoBRET live-cell target engagement, CDK12-NanoLuc/Cyclin K in HEK-293; type: binding; conditions: 10µM, read-out: CDK12/K Inhibition at 10µM (%)
CDK12/Cyclin K, sequence (Q9NYV4 1-1481 isoform Q9NYV4-2): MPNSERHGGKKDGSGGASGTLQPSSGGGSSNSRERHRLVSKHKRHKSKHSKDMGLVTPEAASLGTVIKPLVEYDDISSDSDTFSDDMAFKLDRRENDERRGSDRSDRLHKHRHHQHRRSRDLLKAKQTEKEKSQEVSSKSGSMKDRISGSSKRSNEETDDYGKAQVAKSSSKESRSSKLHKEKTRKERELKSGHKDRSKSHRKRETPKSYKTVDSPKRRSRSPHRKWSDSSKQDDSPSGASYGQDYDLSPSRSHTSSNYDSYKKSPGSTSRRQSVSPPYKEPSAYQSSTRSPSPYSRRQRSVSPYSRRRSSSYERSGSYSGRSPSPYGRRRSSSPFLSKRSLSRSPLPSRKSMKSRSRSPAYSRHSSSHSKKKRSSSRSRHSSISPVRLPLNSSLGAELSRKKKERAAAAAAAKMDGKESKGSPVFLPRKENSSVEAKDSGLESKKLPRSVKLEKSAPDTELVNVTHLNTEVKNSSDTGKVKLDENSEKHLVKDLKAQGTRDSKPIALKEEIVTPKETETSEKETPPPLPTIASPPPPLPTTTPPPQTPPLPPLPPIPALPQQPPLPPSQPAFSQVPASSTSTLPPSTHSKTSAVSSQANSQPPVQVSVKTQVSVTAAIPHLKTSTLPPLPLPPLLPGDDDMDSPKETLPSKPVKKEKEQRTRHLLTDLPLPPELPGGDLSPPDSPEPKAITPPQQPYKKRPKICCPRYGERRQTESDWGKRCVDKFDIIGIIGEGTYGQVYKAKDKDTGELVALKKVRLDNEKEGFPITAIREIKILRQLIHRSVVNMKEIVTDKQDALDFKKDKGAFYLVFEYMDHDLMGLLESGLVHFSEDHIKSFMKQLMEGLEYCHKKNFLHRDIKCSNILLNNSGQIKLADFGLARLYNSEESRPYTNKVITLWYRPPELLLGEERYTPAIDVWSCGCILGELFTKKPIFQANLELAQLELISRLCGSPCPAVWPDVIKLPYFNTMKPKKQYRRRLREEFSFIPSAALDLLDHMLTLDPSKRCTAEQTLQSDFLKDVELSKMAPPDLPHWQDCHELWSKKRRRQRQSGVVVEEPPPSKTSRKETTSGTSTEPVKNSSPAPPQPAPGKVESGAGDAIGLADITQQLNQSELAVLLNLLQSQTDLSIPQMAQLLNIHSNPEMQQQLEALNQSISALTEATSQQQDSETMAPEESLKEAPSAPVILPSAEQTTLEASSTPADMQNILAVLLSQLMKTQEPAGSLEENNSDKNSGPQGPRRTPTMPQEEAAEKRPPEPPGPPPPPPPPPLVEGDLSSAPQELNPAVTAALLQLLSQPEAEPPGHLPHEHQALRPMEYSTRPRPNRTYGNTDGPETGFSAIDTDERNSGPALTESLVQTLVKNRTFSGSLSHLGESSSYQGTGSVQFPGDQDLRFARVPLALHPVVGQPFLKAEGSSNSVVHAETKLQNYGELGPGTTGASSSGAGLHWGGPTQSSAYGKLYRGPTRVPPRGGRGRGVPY
CDK12/Cyclin K, sequence (O75909 whole entry partner): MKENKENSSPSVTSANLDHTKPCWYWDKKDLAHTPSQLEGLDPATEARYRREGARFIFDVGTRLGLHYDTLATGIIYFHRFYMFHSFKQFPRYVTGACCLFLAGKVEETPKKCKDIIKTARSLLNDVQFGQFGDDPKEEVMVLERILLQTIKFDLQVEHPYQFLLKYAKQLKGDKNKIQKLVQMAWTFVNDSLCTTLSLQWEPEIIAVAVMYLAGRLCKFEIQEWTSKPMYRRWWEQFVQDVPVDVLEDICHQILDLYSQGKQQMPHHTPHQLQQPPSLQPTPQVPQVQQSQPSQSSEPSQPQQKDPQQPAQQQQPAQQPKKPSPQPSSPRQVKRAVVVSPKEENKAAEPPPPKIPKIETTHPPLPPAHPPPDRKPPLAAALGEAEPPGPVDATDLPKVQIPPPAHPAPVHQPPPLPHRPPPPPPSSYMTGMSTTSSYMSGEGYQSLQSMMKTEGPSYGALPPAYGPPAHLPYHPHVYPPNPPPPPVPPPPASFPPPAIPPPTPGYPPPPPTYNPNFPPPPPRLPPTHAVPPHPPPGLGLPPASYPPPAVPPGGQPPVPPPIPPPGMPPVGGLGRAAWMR

[12] = molecular target: CDK13/Cyclin K (Homo sapiens, UniProt Q14004); test: NanoBRET live-cell target engagement, CDK13-NanoLuc/Cyclin K in HEK-293; type: binding; conditions: 10µM, read-out: CDK13/K Inhibition at 10µM (%)
[13] = molecular target: CDK14/Cyclin Y (Homo sapiens, UniProt O94921); test: NanoBRET live-cell target engagement, CDK14-NanoLuc/Cyclin Y in HEK-293; type: binding; conditions: 10µM, read-out: CDK14/Y Inhibition at 10µM (%)
[14] = molecular target: CDK15/Cyclin Y (Homo sapiens, UniProt Q96Q40); test: NanoBRET live-cell target engagement, NanoLuc-CDK15/Cyclin Y in HEK-293; type: binding; conditions: 10µM, read-out: CDK15/Y Inhibition at 10µM (%)
[15] = molecular target: CDK16/Cyclin Y (Homo sapiens, UniProt Q00536); test: NanoBRET live-cell target engagement, CDK16-NanoLuc/Cyclin Y in HEK-293; type: binding; conditions: 10µM, read-out: CDK16/Y Inhibition at 10µM (%)
[16] = molecular target: CDK17/Cyclin Y (Homo sapiens, UniProt Q00537); test: NanoBRET live-cell target engagement, CDK17-NanoLuc/Cyclin Y in HEK-293; type: binding; conditions: 10µM, read-out: CDK17/Y Inhibition at 10µM (%)
[17] = molecular target: CDK18/Cyclin Y (Homo sapiens, UniProt Q07002); test: NanoBRET live-cell target engagement, CDK18-NanoLuc/Cyclin Y in HEK-293; type: binding; conditions: 10µM, read-out: CDK18/Y Inhibition at 10µM (%)
CDK18/Cyclin Y, sequence (Q07002 whole entry): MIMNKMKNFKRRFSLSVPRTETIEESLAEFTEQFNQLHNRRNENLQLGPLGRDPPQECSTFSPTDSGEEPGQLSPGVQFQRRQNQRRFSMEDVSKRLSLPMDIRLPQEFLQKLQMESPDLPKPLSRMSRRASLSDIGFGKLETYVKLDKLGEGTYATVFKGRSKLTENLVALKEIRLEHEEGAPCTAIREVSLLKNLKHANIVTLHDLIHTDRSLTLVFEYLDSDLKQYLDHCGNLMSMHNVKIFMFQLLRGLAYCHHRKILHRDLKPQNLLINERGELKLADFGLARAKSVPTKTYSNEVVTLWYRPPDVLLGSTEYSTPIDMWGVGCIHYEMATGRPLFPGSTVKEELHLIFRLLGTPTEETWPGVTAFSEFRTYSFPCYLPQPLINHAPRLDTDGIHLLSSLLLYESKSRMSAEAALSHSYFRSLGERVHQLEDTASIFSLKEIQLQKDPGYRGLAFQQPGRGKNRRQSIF
CDK18/Cyclin Y, sequence (Q8ND76 whole entry partner): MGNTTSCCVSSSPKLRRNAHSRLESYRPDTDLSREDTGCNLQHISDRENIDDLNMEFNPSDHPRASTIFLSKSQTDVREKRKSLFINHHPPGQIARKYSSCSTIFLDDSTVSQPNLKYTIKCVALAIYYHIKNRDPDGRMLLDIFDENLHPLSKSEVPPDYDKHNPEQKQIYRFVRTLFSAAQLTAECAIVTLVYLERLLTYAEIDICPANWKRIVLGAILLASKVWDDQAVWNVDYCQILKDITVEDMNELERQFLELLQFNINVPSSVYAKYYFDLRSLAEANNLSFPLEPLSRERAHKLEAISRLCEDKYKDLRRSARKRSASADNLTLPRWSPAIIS

[18] = molecular target: CDK20/Cyclin H (Homo sapiens, UniProt Q8IZL9); test: NanoBRET live-cell target engagement, NanoLuc-CDK20/Cyclin H in HEK-293; type: binding; conditions: 10µM, read-out: CDK20/H Inhibition at 10µM (%)
[19] = molecular target: CDK19/Cyclin C (Homo sapiens, UniProt Q9BWU1); test: NanoBRET live-cell target engagement, NanoLuc-CDK19/Cyclin C in HEK-293; conditions: read-out: CDK19/C Inhibition at 10µM (%), 10µM
[20] = molecular target: CDK10/Cyclin L2 (Homo sapiens, UniProt Q15131); test: NanoBRET live-cell target engagement, CDK10-NanoLuc/Cyclin L2 in HEK-293; conditions: read-out: CDK10/L2 Inhibition at 10µM (%), 10µM
CDK10/Cyclin L2, sequence (Q15131 whole entry): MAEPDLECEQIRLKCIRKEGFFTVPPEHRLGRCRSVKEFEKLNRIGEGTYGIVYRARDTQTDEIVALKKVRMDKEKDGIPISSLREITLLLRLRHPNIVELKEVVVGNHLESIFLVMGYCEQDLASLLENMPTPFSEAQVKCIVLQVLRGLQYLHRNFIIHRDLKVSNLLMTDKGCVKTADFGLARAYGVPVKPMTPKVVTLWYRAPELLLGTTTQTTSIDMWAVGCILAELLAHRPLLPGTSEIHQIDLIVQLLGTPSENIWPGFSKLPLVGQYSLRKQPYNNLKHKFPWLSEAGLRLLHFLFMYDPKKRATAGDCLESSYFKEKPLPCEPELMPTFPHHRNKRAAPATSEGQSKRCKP

Compound: CC(C)CC(=O)Nc1[nH]nc2c1CN(C(=O)C1CCN(C)CC1)C2(C)C [PHA-793887]
- inhibition at 10 µM ([1]; average of experiments): 71.4%
- inhibition at 10 µM ([1]; independent experiment 1): 72%
- inhibition at 10 µM ([1]; independent experiment 2): 70.8%
- pIC50 ([1]; average (± SEM where n=3)): 6.09
- pIC50 ([1]; independent experiment 1): 6.10
- pIC50 ([1]; independent experiment 2): 6.07
- inhibition at 10 µM ([2]; average of experiments): 96%
- inhibition at 10 µM ([2]; independent experiment 1): 95.7%
- inhibition at 10 µM ([2]; independent experiment 2): 96.3%
- inhibition at 10 µM ([3]; average of experiments): 93.2%
- inhibition at 10 µM ([3]; independent experiment 1): 93.4%
- inhibition at 10 µM ([3]; independent experiment 2): 93%
- pIC50 ([3]; average (± SEM where n=3)): 6.55
- pIC50 ([3]; independent experiment 1): 6.78
- pIC50 ([3]; independent experiment 2): 6.40
- inhibition at 10 µM ([4]; average of experiments): 83.1%
- inhibition at 10 µM ([4]; independent experiment 1): 82.5%
- inhibition at 10 µM ([4]; independent experiment 2): 83.8%
- pIC50 ([4]; average (± SEM where n=3)): 6.49
- pIC50 ([4]; independent experiment 1): 6.91
- pIC50 ([4]; independent experiment 2): 6.29
- inhibition at 10 µM ([5]; average of experiments): 92%
- inhibition at 10 µM ([5]; independent experiment 1): 89.9%
- inhibition at 10 µM ([5]; independent experiment 2): 94.2%
- pIC50 ([5]; average (± SEM where n=3)): 6.44
- pIC50 ([5]; independent experiment 1): 6.37
- pIC50 ([5]; independent experiment 2): 6.52
- inhibition at 10 µM ([6]; average of experiments): 88.3%
- inhibition at 10 µM ([6]; independent experiment 1): 84.9%
- inhibition at 10 µM ([6]; independent experiment 2): 91.6%
- pIC50 ([6]; average (± SEM where n=3)): 6.37
- pIC50 ([6]; independent experiment 1): 6.43
- pIC50 ([6]; independent experiment 2): 6.32
- inhibition at 10 µM ([7]; average of experiments): 94.1%
- inhibition at 10 µM ([7]; independent experiment 1): 95.3%
- inhibition at 10 µM ([7]; independent experiment 2): 92.8%
- pIC50 ([7]; average (± SEM where n=3), read-out: CDK7 IC50): 6.62
- pIC50 ([7]; independent experiment 1, read-out: CDK7 IC50): 6.62
- pIC50 ([7]; independent experiment 2, read-out: CDK7 IC50): 6.64
- pIC50 ([7]; live HEK-293, 2 h, mean ± S.E.M. (n=3) or mean (n=2), read-out: IC50 for CDK/cyclin complexes, CDK7): 6.62
- inhibition at 10 µM ([8]; average of experiments): 57.2%
- inhibition at 10 µM ([8]; independent experiment 1): 65.2%
- inhibition at 10 µM ([8]; independent experiment 2): 49.1%
- inhibition at 10 µM ([9]; average of experiments): 86%
- inhibition at 10 µM ([9]; independent experiment 1): 87.8%
- inhibition at 10 µM ([9]; independent experiment 2): 84.1%
- inhibition at 10 µM ([10]; average of experiments): 56.3%
- inhibition at 10 µM ([10]; independent experiment 1): 57.8%
- inhibition at 10 µM ([10]; independent experiment 2): 54.7%
- inhibition at 10 µM ([11]; average of experiments): 31.4%
- inhibition at 10 µM ([11]; independent experiment 1): 33%
- inhibition at 10 µM ([11]; independent experiment 2): 29.9%
- inhibition at 10 µM ([12]; average of experiments): 17.1%
- inhibition at 10 µM ([12]; independent experiment 1): 23.7%
- inhibition at 10 µM ([12]; independent experiment 2): 10.4%
- inhibition at 10 µM ([13]; average of experiments): 81.4%
- inhibition at 10 µM ([13]; independent experiment 1): 81%
- inhibition at 10 µM ([13]; independent experiment 2): 81.8%
- inhibition at 10 µM ([14]; average of experiments): 72.5%
- inhibition at 10 µM ([14]; independent experiment 1): 72.6%
- inhibition at 10 µM ([14]; independent experiment 2): 72.5%
- inhibition at 10 µM ([15]; independent experiment 1): 84.5%
- inhibition at 10 µM ([15]; independent experiment 2): 87%
- inhibition at 10 µM ([16]; average of experiments): 86.9%
- inhibition at 10 µM ([16]; independent experiment 1): 86.4%
- inhibition at 10 µM ([16]; independent experiment 2): 87.4%
- inhibition at 10 µM ([17]; average of experiments): 91.7%
- inhibition at 10 µM ([17]; independent experiment 1): 86.8%
- inhibition at 10 µM ([17]; independent experiment 2): 96.6%
- inhibition at 10 µM ([18]; independent experiment 1): 5.8%
- inhibition at 10 µM ([18]; independent experiment 2): 16.7%
- inhibition at 10 µM ([19]; average of experiments): 52.6%
- inhibition at 10 µM ([19]; independent experiment 1): 63.4%
- inhibition at 10 µM ([19]; independent experiment 2): 41.9%
- inhibition at 10 µM ([20]; average of experiments): 30%
- inhibition at 10 µM ([20]; independent experiment 1): 32.9%
- inhibition at 10 µM ([20]; independent experiment 2): 27.2%
